Assay results reported in article PMC7520468, “Salvia ceratophylla L. from South of Jordan: new insights on chemical composition and biological activities” (Natural Products and Bioprospecting, 2020).
Converted amounts (≈) assume the structure as drawn. One block for each compound: values may come before it.

Columns and labels:
[1] = test system: T. brucei brucei blood stream forms; set-up: method as in PMID 16557466; conditions: cited from earlier work
[2] = test system: L. donovani promastigotes; test: Leishmania donovani promastigote assay (Alamar Blue); assay type: cell-based; conditions: 72 h, 26 °C, tested concentrations (µg/mL) 20–0.8 extracts, 10–0.4 pure compounds and pentamidine, 2.0–0.08 amphotericin B, NA = not active
Protocol: (§1) EO and extracts (A-D) at a stock concentration of 20 mg/mL were dilute to 4 mg/mL with DMSO. The obtained solutions (4 mg/mL) were four-fold diluted with incomplete RPMI medium to 1 mg/mL. Pure compounds at a stock concentration of 2 mg/mL in DMSO were diluted four-fold with incomplete RPMI medium to 0.5 mg/mL.
(§2) The extracts and pure compounds (highest concentrations 20 µg/mL for extracts and 10 µg/mL for pure compounds) were subject to different tests, namely Leishmania donovani promastigote assay, L. donovani axenic amastigote assay, L. donovani THP1 macrophage amastigote assay, Trypanosoma brucei trypamastigotes assay and THP1 toxicity assay. Alamar Blue assay was perform as previously described by other authors.
(§3) These assays have been adapted to 384-well micro-plate format. A 3–4 days old culture of Leishmania donovani promastigotes harvested in the exponential growth phase was diluted with RPMI medium to 1 × 10^6 cells/mL for promastigote assays. A 3–4 days old culture of Leishmania donovani axenic amastigotes was diluted with RPMI medium to 2 × 10^6 cells/mL for axenic amastigote assays. A 2 days old culture of Trypanosoma brucei harvested in the exponential phase was diluted with Iscove's Modified Dulbecco's Medium (IMDM) to 5 × 10^3 cells/mL for the antitrypanosomal assay.
(§4) Samples were added to the L. donovani promastigotes, L. donovani axenic amastigotes or T. brucei trypamastigotes cultures. The extracts were initially test at single concentrations of […] for primary screening. The active extracts and pure compounds were test at three or six concentrations ranging from 10 to 0.0032 µg/mL. The plates were incubated at 26 °C for 72 h (37 °C for axenic amastigotes and T. brucei trypamastigotes) and growth of cultured parasites was determined by the Alamar Blue assay [32 33].

[3] = test system: L. donovani axenic amastigotes; test: L. donovani axenic amastigote assay (Alamar Blue); assay type: cell-based; conditions: Leishmania donovani; first Amastigote column; 72 h, 37 °C; tested concentrations (µg/mL) 20–0.8 extracts, 10–0.4 pure compounds and pentamidine, 2.0–0.08 amphotericin B; NA = not active
Protocol: as §1, §2
These assays have been adapted to 384-well micro-plate format. A 3–4 days old culture of Leishmania donovani promastigotes harvested in the exponential growth phase was diluted with RPMI medium to 1 × 10^6 cells/mL for promastigote assays. […]
Samples were added to the L. donovani promastigotes, L. donovani axenic amastigotes or T. brucei trypamastigotes cultures. […] The plates were incubated at 26 °C for 72 h (37 °C for axenic amastigotes and T. brucei trypamastigotes) and growth of cultured parasites was determined by the Alamar Blue assay [32 33].

[4] = test system: human HepG2 hepatoma cells; test: Inhibition of cellular oxidative stress assay (ABAP, DCFH-DA); assay type: cell-based
Protocol: The cellular antioxidant activity of S. ceratophylla EO and other extracts was measured in human HepG2 hepatoma cells This assay determines the ability of test samples to prevent intracellular generation of peroxyl radicals in response to 2,2- azobis (2-amidinopropane) dihydrochloride (ABAP, Sigma-Aldrich, St Louis, MO, USA).
HepG2 cells were culture in Dulbecco's Modified Eagle Medium (DMEM) supplemented with 10% fetal bovine serum (FBS), 50 units/mL penicillin and 50 µg/mL streptomycin. Cells were seed in 96-well plates (60,000 cells/well) and incubated for 24 h. The tested samples were diluted in serum free medium containing 25 µM 2^′,7′, dichoroflouresceine diacetate (DCFH-DA, Invitrogen, Carlsbad, CA, USA). The cells were wash with PBS and treated with test samples during 1 h. The medium containing tested samples was removed, ABAP (600 µM) was added and the plate was immediately placed on a Spectra Max plate reader for kinetic reading every 5 min during 1 h (37 °C, emission at 538 nm and excitation at 485 nm). Quercetin (Sigma-Aldrich) was use as positive control. To calculate the percentage of decrease in oxidative stress, the Area Under the Curve (AUC) of fluorescence versus time was used. Decrease in oxidative stress%=AUC control^100-[AUC tested sample×100]

NF-κB = test: Inhibition of NF-κB activity, luciferase reporter in SW 1353 cells; assay type: cell-based; conditions: Homo sapiens, SW1353; SW 1353, PMA 70 ng/mL, 8 h; NA = not active at tested concentration
Protocol: The inhibition activity of tested samples against NF-κB was evaluate as described. The SW 1353 human chondrosarcoma cell line was culture in a mixture of Dulbecco's Modified Eagle's Medium (DMEM) and Ham's F-12 Nutrient (DMEM/F12) supplemented with 10% FBS, 100 U/Ml penicillin and 100 µg/mL streptomycin. Cultured cells were washed in antibiotic and FBS-free DMEM/F12 medium and then re-suspended in FBS-free DMEM/F12 medium containing 2.5% FBS. NF-κB luciferase plasmid construct was added to the cell suspension in a concentration of 50 µg/mL and incubated for 5 min at 25 °C. The cells were transfected by electroporation at 160 V and one 70 ms pulse using BTX disposable cuvettes (model 640 in a BTX Electro Square Porator T 820—BTX I, San Diego, CA, USA), Transfected cells were plate in 96-well plates at a density of 1.25 × 10^5cells per well in 200 µL of DMEM/F12 containing 10% FBS and antibiotics. After incubation for 24 h, the cells were treated with test samples for 30 min and then induced with PMA (70 ng/mL) for 8 h. The inhibition of NF-κB activity by EO, other extracts, and pure compounds was calculated in comparison to vehicle control. The IC50 values were obtain from the dose curves. Parthenolide was use as positive control.

[5] = test system: transcription factor Sp-1; test: Sp-1 inhibition; assay type: cell-based; conditions: NA = not active at tested concentration
[6] = test system: skin malignant melanoma (SK-MEL); test: Cytotoxic activity, Neutral Red assay, SK-MEL; assay type: cell-based; conditions: Homo sapiens; 48 h; NA = not active at 10 µg/mL for pure compound, at 100 µg/mL for extracts
Protocol: (§5) All cell lines used in this study were purchase from American Type Culture Collection (ATCC, Rockville, MD). The cytotoxic activity of the EO, extracts isolated from S. ceratophylla and pure compounds was determined in vitro against various human cancer cells: skin malignant melanoma (SK-MEL), human KB carcinoma (KB), breast ductal carcinoma (BT-549), ovarian carcinoma (SK-OV-3), and in two non-cancerous mammalian kidney cell lines (LLC-PK1 and VERO). Cells were seed at a density of 25,000 cells/well and incubated during 24 h. The tested EO, extracts and pure compounds were added separately at studied concentrations and cells were re-incubated during 48 h. After incubation time, the viability of cells was assessed by using Neutral Red Dye as described. DMSO was use as negative control and doxorubicin as positive control.

human KB carcinoma (KB) = test: Cytotoxic activity, Neutral Red assay, KB; assay type: cell-based; conditions: 48 h, NA = not active at 10 µg/mL for pure compound, at 100 µg/mL for extracts
Protocol: as §5

[7] = test system: breast ductal carcinoma (BT-549); test: Cytotoxic activity, Neutral Red assay, BT-549; assay type: cell-based; conditions: Homo sapiens, 48 h, NA = not active at 10 µg/mL for pure compound, at 100 µg/mL for extracts
Protocol: as §5

[8] = test system: ovarian carcinoma (SK-OV-3); test: Cytotoxic activity, Neutral Red assay, SK-OV-3; assay type: cell-based; conditions: Homo sapiens, 48 h, NA = not active at 10 µg/mL for pure compound, at 100 µg/mL for extracts
Protocol: as §5

[9] = Cytotoxic activity, Neutral Red assay, LLC-PK1; assay type: cell-based; conditions: pig, LLC-PK1 kidney epithelial cells (non-cancerous), NA = not active at 10 µg/mL for pure compound, at 100 µg/mL for extracts
Protocol: as §5

[10] = Cytotoxic activity, Neutral Red assay, Vero; assay type: cell-based; conditions: African green monkey, Vero kidney fibroblast cells (non-cancerous), NA = not active at 10 µg/mL for pure compound, at 100 µg/mL for extracts
Protocol: as §5

[11] = test system: NO production in mouse macrophage cells (RAW 264.7); test: Nitric oxide (NO) measurement, LPS-stimulated macrophages, Griess reagent; assay type: cell-based; conditions: RAW264.7, RAW 264.7, LPS 5 µg/mL, 24 h, NA = not active at tested concentration, read-out: NO inhibition IC50
Protocol: The NO inhibition by EO, extracts of S. ceratophylla and pure compounds, was assess by the following methodology. Briefly, mouse macrophage cells (RAW 264.7) were culture in phenol red free RPMI medium with 10% bovine calf serum and 100 U/mL penicillin and 100 µg/mL streptomycin.
Cells were seed in 96-well plates (50,000 cells/well) and incubated during 24 h. The tested samples were dilute in serum free medium, incubated during 30 min, then lipopolysaccharide (LPS, 5 µg/mL) was added and cells were incubated for further 24 h. The level of nitrite in the cell supernatant was measure by using Griess reagent. The inhibition of nitrite production by the tested samples was calculate in comparison to the vehicle control. Parthenolide (Sigma-Aldrich) was use as positive control. IC50 values were obtain from dose curves.

[12] = test system: several cancer cell lines; set-up: method as in earlier work; conditions: up to a concentration of 200 μg/mL; cited from earlier work
[13] = test system: carrageenin-induced hind paw edema; set-up: method as in PMID 23334570; conditions: dose of 25 mg/kg, p = 0.03; cited from earlier work
[14] = test system: L. amazonensis promastigotes; set-up: method as in PMID 12760864; conditions: cited from earlier work
[15] = test system: differentiated THP1 cells; test: THP1 toxicity assay (Alamar Blue); assay type: cell-based; conditions: Homo sapiens, THP-1; 48 h; tested concentrations (µg/mL) 20–0.8 extracts, 10–0.4 pure compounds and pentamidine, 2.0–0.08 amphotericin B; NA = not active
Protocol: Alamar Blue assay was perform as previously described by other authors. […] PMA was added to a final concentration of 25 ng/mL. A PMA treated culture was dispense in experimental culture plates and incubated overnight at 37 °C in a 5% CO2 incubator. The plates with differentiated THP1 cells were wash with serum-free medium. For THP1 toxicity assay, the diluted test samples (extracts or pure compounds) were add over differentiated THP1 cells and plates were incubated during 48 h at 37 °C in a 5% CO2 incubator. Cell growth was determined by the Alamar Blue assay.

[16] = test system: T. brucei trypamastigotes; test: Trypanosoma brucei trypamastigotes assay (Alamar Blue); assay type: cell-based; conditions: 72 h, 37 °C, tested concentrations (µg/mL) 20–0.8 extracts and DFMO, 10–0.4 pure compounds, NA = not active
Protocol: as §1, §2, §3, §4

[17] = compounds of Strychnos spinosa EO

Compound: C=CC(C)(O)CCC=C(C)CCC=C(C)C (mixture of isomers) [nerolidol]
IC50 towards Trypanosoma [1, 17]: 1.7 µg/mL
selectivity index (SI) towards Trypanosoma [1, 17]: 35.7

Compound: C[C@@H]1[C@H](O)[C@@H](C)/C=C/C=C/C=C/C=C/C=C/C=C/C=C/[C@H](O[C@@H]2O[C@H](C)[C@@H](O)[C@H](N)[C@@H]2O)C[C@@H]2O[C@](O)(C[C@@H](O)C[C@@H](O)[C@H](O)CC[C@@H](O)C[C@@H](O)CC(=O)O[C@H]1C)C[C@H](O)[C@H]2C(=O)O [Amphotericin B]
IC50 [2]: 0.14 µg/mL (≈ 0.152 µM)
IC90 [2]: 0.324 µg/mL (≈ 0.351 µM)
IC50 [3]: 0.181 µg/mL (≈ 0.196 µM)

Compound: C=C1CC/C=C(\C)CC[C@@H]2[C@@H]1CC2(C)C [Caryophyllene, (-)trans-Caryophyllene]
% decrease in oxidative stress ([4]; 250 µg/mL, pure compounds, NA = not active at tested concentration): 31%
% decrease in oxidative stress ([4]; 500 µg/mL, pure compounds, NA = not active at tested concentration): 35%
IC50 (NF-κB): 45 µg/mL (≈ 220 µM)
IC50 [5]: 48 µg/mL (≈ 235 µM)

Compound: COc1cccc2c1C(=O)c1c(O)c3c(c(O)c1C2=O)C[C@@](O)(C(=O)CO)C[C@@H]3O[C@H]1C[C@H](N)[C@H](O)[C@H](C)O1 [Doxorubicin]
IC50 [6]: 0.8 µg/mL (≈ 1.47 µM)
IC50 (human KB carcinoma (KB)): 1.4 µg/mL (≈ 2.58 µM)
IC50 [7]: 0.85 µg/mL (≈ 1.56 µM)
IC50 [8]: 2 µg/mL (≈ 3.68 µM)
IC50 at 48 h [9]: 1.2 µg/mL (≈ 2.21 µM)
IC50 at 48 h [10]: > 5 µg/mL

Compound: C=CC(C)(O)CCC=C(C)C (stereo not drawn) [Linalool]
IC50 [11]: 18 µg/mL (≈ 117 µM)
cytotoxic activity against several cancer cell lines [12]: did not exhibit cytotoxic activity
inhibition of carrageenin-induced hind paw edema [13]: 55%
MIC, viability of L. amazonensis promastigotes [14]: 0.085 ng/mL
IC50 towards Trypanosoma [1, 17]: 2.5 µg/mL (≈ 16.2 µM)

Compound: O=c1c(O)c(-c2ccc(O)c(O)c2)oc2cc(O)cc(O)c12 [Quercetin]
% decrease in oxidative stress ([4]; 25 µM, positive control): 75%

More lines, main results first:

IC50 (NF-κB): 0.33 µg/mL (≈ 1.33 µM)
Compound: C=C1C(=O)O[C@H]2[C@H]1CC/C(C)=C/CC[C@@]1(C)O[C@@H]21 [Parthenolide]
IC50 [11]: 0.48 µg/mL (≈ 1.93 µM)

IC50 [2]: 1.02 µg/mL (≈ 3.01 µM)
IC90 [2]: 9.28 µg/mL (≈ 27.3 µM)
IC50 [3]: 3.8 µg/mL (≈ 11.2 µM)
Compound: N=C(N)c1ccc(OCCCCCOc2ccc(C(=N)N)cc2)cc1 [Pentamidine]
IC90 [15]: 1.74 µg/mL (≈ 5.1 µM)

IC50 (NF-κB): 100 µg/mL (≈ 648 µM)
IC50 ([16]; Trypanosoma brucei): 6.04 µg/mL (≈ 39.2 µM)
IC90 ([16]; Trypanosoma brucei): 8.22 µg/mL (≈ 53.3 µM)
Compound: CC1=CC[C@@H](C(C)(C)O)CC1 [α-Terpineol]
activity against T. brucei brucei blood stream forms [1]: slightly active

T. brucei IC50 [16]: 4.792 µg/mL
T. brucei IC90 [16]: 7.760 µg/mL
Compound: NCCC[C@](N)(C(=O)O)C(F)F [α-difluoromethylornithine]
